Legend:
[1] = Test B: In-vitro competitive aortic tissue binding assay; set-up: species or system rat; details: 100 μM test compound, competition with [14C]-labelled WO2010/128324 Ex. 3, categories strong binder, medium binder, no binder
Protocol: Test B: In-Vitro Competitive Aortic Tissue Binding Assay
Aortic homogenate was prepared from the thoracic aortae of Han Wistar rats. Freshly isolated to thoracic aortae were frozen, and later thawed and stripped of non-elastic material.
Homogenate concentration was adjusted to 30 mg/mL in Puck's saline, and aliquots were stored at −80° C. until use. Positive and negative control compounds and test compounds were made up to 100 mM in DMSO, and added to 1 mL aliquots of aortic homogenate in Puck's saline for a final concentration of 100 μM. Homogenate samples were pre-incubated with test compounds at 37° C., rotating, overnight. [^14C]4-Amino-N-[(1S)-1-cyano-2-(4′-cyanobiphenyl-4-yl)ethyl]tetrahydro-2H-pyran-4-carboxamide was then added to all samples to a final concentration of 100 μM, and samples were incubated at 37° C., rotating, for a further 2 h. Protein was precipitated from each sample by the addition of 10 mL acetone, pre-chilled to −20° C. Samples were left overnight at −20° C. to allow complete precipitation. Precipitate was pelleted by centrifugation at 4,500×g at 4° C. for 20 min, an aliquot of supernatant was removed for analysis, and the remainder of the supernatant discarded. Precipitate was washed by resuspension in 10 mL 80% methanol in distilled water, and re-pelleted by centrifugation at 4,500×g at 4° C. for 20 min. […] After final wash, precipitate was air-dried, and dissolved overnight in 1 mL NCSII Tissue Solubiliser. 1 mL aliquots of supernatants were added to 5 mL Ultima Gold scintillation fluid (Perkin Elmer, MA, U.S.A.), and 1 mL solubilised pellets were added to 5 mL Hionic-Fluor scintillation fluid (Perkin Elmer, Mass., U.S.A.). Radioactivity of samples was determined on a Beckman LS6500 multipurpose scintillation counter (Beckman Coulter, IN, U.S.A.). […] Duplicate samples were tested for each compound on each experimental occasion, and at least two experiments were run for each test compound. […] 1-way ANOVA and Bonferroni's multiple comparison tests were performed to calculate significance of differences from vehicle control.

[2] = molecular target: recombinant human DPP1 (rhDPP1) (Homo sapiens (Human), UniProt P53634); assay: Test A1: Fluorescence assay for recombinant human (RH) DPP1; assay type: biochemical; details: Test A1, H-Gly-Arg-AMC substrate, 22° C. (Examples 1-35)
Sequence of recombinant human DPP1 (rhDPP1) (P53634 231-394): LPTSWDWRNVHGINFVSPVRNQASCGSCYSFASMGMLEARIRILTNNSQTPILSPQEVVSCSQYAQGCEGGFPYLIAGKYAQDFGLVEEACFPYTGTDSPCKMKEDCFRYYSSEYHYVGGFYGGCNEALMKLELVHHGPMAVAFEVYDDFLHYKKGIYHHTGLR
Sequence of recombinant human DPP1 (rhDPP1) (P53634 25-143): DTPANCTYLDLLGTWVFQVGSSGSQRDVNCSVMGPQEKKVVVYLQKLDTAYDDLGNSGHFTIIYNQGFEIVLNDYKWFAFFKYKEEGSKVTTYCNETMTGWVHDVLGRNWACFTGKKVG
Sequence of recombinant human DPP1 (rhDPP1) (P53634 395-463): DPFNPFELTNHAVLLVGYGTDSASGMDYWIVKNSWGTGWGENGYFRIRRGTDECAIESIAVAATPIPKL
Protocol: Test A1: Fluorescence Assay for Recombinant Human (RH) DPP1
The activity of DPP1 was determined by measuring the enzymatic release of aminomethyl coumarin (AMC) from the peptide substrate (H-Gly-Arg-AMC), which leads to an increase in fluorescence intensity at λex=350 nm and λem=450 nm. The assay was carried out in black 384 well plates in a final volume of 50 μl at 22° C. The assay conditions contained the following: 25 mM piperazine buffer pH 5.0; 50 mM NaCl, 5 mM DTT; 0.01% (v/v) Triton X-100; 100 μM H-Gly-Arg-AMC and rhDPP1 (˜50 pM). […] Routinely, inhibitors were pre-incubated with rhDPP1 for 30-60 min prior to the addition of the peptide substrate to start the reaction for a further 60 min at 22° C.

[3] = Quantitative whole-body autoradiography (QWBA), aortic retention; assay type: in vivo

SMILES: Cn1c(=O)oc2ccc(-c3ccc(C[C@@H](C#N)NC(=O)[C@@H]4CNCCCO4)cc3)cc21 [Example 2, (2S)—N-{(1S)-1-Cyano-2-[4-(3-methyl-2-oxo-2,3-dihydro-1,3-benzoxazol-5-yl)phenyl]ethyl}-1,4-oxazepane-2-carboxamide]
- Aortic Tissue Binding [1]: No binder

SMILES: CN1C(=O)CNc2ccc(-c3ccc(C[C@@H](C#N)NC(=O)[C@@H]4CNCCCO4)cc3)cc21 [Example 35, (2S)—N-{(1S)-1-Cyano-2-[4-(4-methyl-3-oxo-1,2,3,4-tetrahydroquinoxalin-6-yl)phenyl]ethyl}-1,4-oxazepane-2-carboxamide]
- DPP1 activity, pIC50 [2]: 7.61

SMILES: N#Cc1ccc(-c2ccc(C[C@@H](C#N)NC(=O)[C@@H]3CCCCN3)cc2)cc1 [WO2009/074829 (Example 24)]
- Aortic Tissue Binding [1]: Binder

SMILES: Cn1c(=O)oc2ccc(-c3ccc(C[C@@H](C#N)NC(=O)[C@@H]4CCCCN4)cc3)cc21 [WO2009/074829 (Example 96)]
- Aortic Tissue Binding [1]: Medium binder

SMILES: N#Cc1ccc(-c2ccc(C[C@@H](C#N)NC(=O)C3(N)CCOCC3)cc2)cc1 [WO2010/128324 (Ex. 3), 4-amino-N-[(1S)-1-cyano-2-(4′-cyanobiphenyl-4-yl)ethyl]tetrahydro-2H-pyran-4-carboxamide]
- Aortic Tissue Binding [1]: Strong binder (reference)
- aortic retention in rat QWBA studies [3]: high level of aortic retention

SMILES: Cn1c(=O)oc2ccc(-c3ccc(C[C@@H](C#N)NC(=O)C4(N)CCOCC4)cc3)cc21 [WO2010/128324 (Example 17)]
- Aortic Tissue Binding [1]: Strong binder

— patent publication US11655221B2, “Certain (2S)-N-[(1S)-1-cyano-2-phenylethyl]-1,4-oxazepane-2-carboxamides as dipeptidyl peptidase 1 inhibitors” (AstraZeneca AB, priority 2014, dated 2023)
